Test results published in US9388147B2 (Receptos, Inc., priority 2009, dated 2016).

Columns and labels:
[1] = molecular target: T1, S1P1 R120A/E121A (Homo sapiens, UniProt P21453, E121A/R120A); experiment: Phosphorylated-ERK1/2 In Cell Western, S1P1 R120A/E121A mutant in CHOK1 cells; type: cell-based
T1 construct: expressed in transfected cells; host or cells: CHOK1
Description: (§1) A. Quick-change mutagenesis with PfuTurbo DNA polymerase (Stratagene) was conducted using S1P1/pcDNA3.1 (Missouri S&T cDNA Resource Centre) as the template. Primers were as follows: […]
(§2) PCR conditions were 15 cycles with the following parameters: 95° C. 30 sec, 58° C. 30 sec, 68° C. for 60 sec. All constructs were sequence verified.
(§3) CHOK1 cells were transfected using Fugene (Roche). Stably expressing mixed pools were selected with 2 mg/ml G418. Expression of functional S1P1/EDG1 receptor was confirmed by cell surface FACS with a S1P1 antibody (R&D Systems, clone 218713). Stable pools were seeded at 40,000 cells/well in a clear bottom 96-well tray, and incubated at 37° C. in 5% CO2 for 18 hrs. Cells were serum-starved in FreeStyle 293 medium (Invitrogen) for 4-6 h, then incubated for 5 min with a dose response of compound, in duplicate. Cells were fixed with 4% paraformaldehyde for 20 min, permeabilized with 0.1% Triton X-100 in PBS (4×5 min washes) and blocked for 1 h in Odyssey Blocking Buffer (LI-COR). All incubations were at room temperature. Cells were incubated for 18 h at 4° C. in Rabbit anti-Phospho-ERK1/2 (Cell Signaling #4377) and Mouse anti-ERK1/2 (Cell Signaling #9107) both diluted 1:800 in Odyssey Blocking Buffer. Plates were washed with 0.1% Tween-20 in PBS and then incubated with Odyssey Blocking Buffer containing IRDye 680-labeled goat anti-rabbit antibody (#926-32221; diluted 1/500) and IRDye 800CW-labeled goat anti-mouse antibody (#926-32210; diluted 1/1000). Plates were washed with 0.1% Tween-20 in PBS, all liquid was removed from the wells and the plates were scanned using a LICOR Odyssey scanner. The phospho-ERK1/2 signal was normalized to the ERK1/2 signal. Data was analyzed by non-linear regression using GraphPad Prism to determine the EC50 of binding.

[2] = molecular target: T2, S1P1 N101A (Homo sapiens, UniProt P21453, N101A); experiment: Phosphorylated-ERK1/2 In Cell Western, S1P1 N101A mutant in CHOK1 cells; type: cell-based
T2 construct: expressed in transfected cells; host or cells: CHOK1
T2 sequence (P21453 whole entry N101A): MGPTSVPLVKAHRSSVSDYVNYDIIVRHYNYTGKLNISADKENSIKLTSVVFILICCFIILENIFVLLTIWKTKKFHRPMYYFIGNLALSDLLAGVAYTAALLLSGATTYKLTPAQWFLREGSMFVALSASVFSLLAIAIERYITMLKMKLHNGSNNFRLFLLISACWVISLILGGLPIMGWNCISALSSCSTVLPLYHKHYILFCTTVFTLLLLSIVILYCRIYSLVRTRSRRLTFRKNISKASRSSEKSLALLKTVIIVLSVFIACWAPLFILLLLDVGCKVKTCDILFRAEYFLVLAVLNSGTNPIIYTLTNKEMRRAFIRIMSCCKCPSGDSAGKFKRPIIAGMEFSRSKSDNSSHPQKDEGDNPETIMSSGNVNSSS
Description: as §1, §2, §3

[3] = molecular target: T3, S1P1 W269L (Homo sapiens, UniProt P21453, W269L); experiment: Phosphorylated-ERK1/2 In Cell Western, S1P1 W269L mutant; type: cell-based
T3 construct: expressed in transfected cells; host or cells: CHOK1
T3 sequence (P21453 whole entry W269L): as the sequence (P21453 whole entry N101A) above, with A101N, W269L counted along it
Description: as §3, with “The phospho-ERK1/2 signal was normalized to the ERK1/2 signal.” left out, “binding. […]” for “binding.”

[4] = molecular target: S1P1/EDG1 (Homo sapiens, UniProt P21453); experiment: Phosphorylated-ERK1/2 In Cell Western, wild type S1P1 in CHOK1 cells; type: cell-based
Sequence of S1P1/EDG1 (P21453 whole entry): as the sequence (P21453 whole entry N101A) above, with A101N counted along it
Description: as §3, with “The phospho-ERK1/2 signal was normalized to the ERK1/2 signal.” left out

[5] = tested on: TNBS induced colitis; experiment: TNBS Crohn's colitis model in rats; type: in vivo, Sprague-Dawley rat; conditions: 1 mg/kg oral daily for six days, 31% in the diseased rats
Description: Male Sprague-Dawley rats (180-200 g) were acclimatized for seven days and then assigned to 8 rats per group so that each group had approximately the same mean weight. Twenty-four hours prior to disease initiation, rats are deprived of food. Rats were anaesthetized and weighed, then 80 mg/kg TNBS solution (50% TNBS: 50% 200 proof ethanol) was instilled into colon via a 20 g feeding needle inserted into the anus. The rats were maintained in head down position until recovery from anesthesia. Daily oral dosing was initiated 2 h post TNBS-instillation for six days. Prednisolone served as a positive control and was administered orally daily at 10 mg/kg. Body weights were monitored daily and 24 h after the last dose, all groups are terminated. The colon was removed, flushed of fecal matter and examined for gross changes including strictures, adhesions and ulcers. The colon length, weight of the distal 2 cm, and wall thickness was recorded.

T1 sequence (P21453 whole entry R120A/E121A): as the sequence (P21453 whole entry N101A) above, with A101N, R120A, E121A counted along it

| SMILES | Effect of mutation on binding of compound (in words) ([1]; S1P1 R120A/E121A) | Fold change in EC50 compared to wild type S1P1 ([1]; S1P1 variant R120A/E121A, phospho-ERK1/2) | Effect of mutation on binding of compound (in words) ([2]; S1P1 N101A) | Fold change in EC50 compared to wild type S1P1 ([2]; S1P1 variant N101A, phospho-ERK1/2) | Effect of mutation on binding of compound (in words) [3] | Phosphorylation of ERK1/2 by S1P1 agonist (in words) [4] | TNBS induced colon shortening [5] |
| --- | --- | --- | --- | --- | --- | --- | --- |
| CC(C)Oc1ccc(-c2nc(-c3cccc4c3CC[C@@H]4N)no2)cc1C#N [Compound 50, (S)-5-(3-(1-amino-2,3-dihydro-1H-inden-4-yl)-1,2,4-oxadiazol-5-yl)-2-isopropoxy-benzonitrile] | has no influence on the binding | 2 | reduces the binding | 32 | abolishes binding | induce phosphorylation of ERK1/2 | – |
| CC(C)Oc1ccc(-c2nc(-c3cccc4c3CC[C@H]4NCCO)no2)cc1C#N [Compound 85, (R)-5-(3-(1-(2-hydroxyethylamino)-2,3-dihydro-1H-inden-4-yl)-1,2,4-oxadiazol-5-yl)-2-isopropoxybenzonitrile] | – | – | – | – | – | – | 15% |
